Tested on: 409-B2 iCRISPR-Cas9n hiPSCs
Experiment: BFP insertion (871 nt ssODN) efficiency in AAVS1 iCRISPR locus, microscopy
Format: cell-based, human
Settings: 7 days of BFP expression
Description: FIG. 8: Impact of the CRISPY mix and its component NU7026 on BFP insertion (ssODN) efficacy in human induced pluripotent stem cells. The design of the mtagBFP2 (Subach et al. 2011) ssODN donor and the iCRISPR system is shown in (A). We inserted a 871 nt (including 50 nt homology arms) sequence coding for a 2A-self cleaving peptide in front of a Blue Fluorescent Protein (BFP), directly after the N-terminal nuclear localization signal sequence (NLS) of the Cas9n in the heterozygous AAVS1 iCRISPR locus (409-B2 iCRISPR-Cas9n hiPSCs). If the sequence is inserted, doxycycline will lead to expression of nucleus-imported BFP. […] Two images (50× magnification, white size bar 200 μm) from each of three technical replicates for the respective treatments were used to quantify the percentage of cells with BFP insertion using ImageJ (C).
409-B2 iCRISPR-Cas9n hiPSCs were nucleofected with gRNAs and the Blue Fluorescent Protein (BFP) single stranded oligo (FIG. 8A, 330 ng) in […] for either mock, NU7026, and CRISPY mix treatment. […] Images were blinded and BFP positive nuclei were counted using the Adobe Photoshop CS5 counting tool. Propidium iodide positive nuclei were quantified using ImageJ by dividing the area of nuclei (default threshold) with the mean area of a single nucleus.

SMILES: O=c1cc(N2CCOCC2)oc2c1ccc1ccccc12 [NU7026]
- nuclei positive for BFP: 6%
- increase of nuclei positive for BFP (vs no-CRISPY control (3.7%)): 1.6 fold

— patent US12173309B2, “Compounds for increasing genome editing efficiency” (Max-Planck-Gesellschaft zur Förderung der Wissenschaften …, priority 2017, dated 2024)
